This note sets out measurements from PubChem BioAssay (NCI).

The structures appear in SMILES notation.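 Results reflect a 48-hour exposure of cells in 96-well plates to compound at five concentrations. GI50 is the concentration that inhibits growth by half. The concentration for full growth arrest is given as TGI.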

Test systems include HL-60(TB) leukemia; HOP-62 NSCLC; HOP-92 NSCLC; MALME-3M melanoma; NCI-H23 lung; OVCAR-3 ovarian; SK-MEL-2 melanoma; SK-MEL-5 melanoma; SNB-19 CNS; UO-31 renal.
Common to all, as to assay: inhibition of tumour cell growth, NCI panel, 48 h

`Cn1ncc2c(/N=C/c3cccs3)[nH]c(=S)nc21`: the GI50 with HL-60(TB) leukemia is 43.6 µM; with HOP-62 NSCLC it was 52.9 µM; in the assay with HOP-92 NSCLC, 61.2 µM; with MALME-3M melanoma it was 34 µM; with NCI-H23 lung, 33.7 µM; in the assay on OVCAR-3 ovarian, 29.2 µM. The GI50 is more than 64.5 µM with SK-MEL-2 melanoma, 17.9 µM in the assay on SK-MEL-5 melanoma, 49.9 µM in the assay on SNB-19 CNS and 58.6 µM in the assay on UO-31 renal. The TGI with HL-60(TB) leukemia is more than 100 µM; in the assay with HOP-62 NSCLC, more than 93.8 µM; with HOP-92 NSCLC, more than 100 µM; with MALME-3M melanoma, more than 80.7 µM; in the assay on NCI-H23 lung, more than 76.1 µM; with OVCAR-3 ovarian it was more than 76.7 µM. For the same compound, the TGI is more than 100 µM in the assay on SK-MEL-2 melanoma, 39.9 µM with SK-MEL-5 melanoma, more than 100 µM in the assay on SNB-19 CNS and more than 100 µM in the assay with UO-31 renal.

`COc1ccc(/C=C2\CN(Cc3cn(CCCNc4ccnc5cc(Cl)ccc45)nn3)C/C(=C\c3ccc(OC)c(OC)c3)C2=O)cc1OC`: the GI50 with HL-60(TB) leukemia was 0.685 µM; with HOP-62 NSCLC it was 2.42 µM; with HOP-92 NSCLC, 1.45 µM; in the assay with MALME-3M melanoma, 1.75 µM; in the assay on NCI-H23 lung, 2.36 µM; with OVCAR-3 ovarian, 0.463 µM. Moreover, the GI50 was 2.32 µM in the assay with SK-MEL-2 melanoma, 2.71 µM in the assay on SK-MEL-5 melanoma, 1.85 µM with SNB-19 CNS and 1.53 µM in the assay on UO-31 renal. Further, the TGI with HL-60(TB) leukemia was determined as 4.03 µM; with HOP-62 NSCLC, 4.54 µM; in the assay on HOP-92 NSCLC it was 5.19 µM; in the assay on MALME-3M melanoma it was 3.54 µM; in the assay on NCI-H23 lung it was 7.26 µM; in the assay with OVCAR-3 ovarian, 1.68 µM. Further, the TGI in the assay with SK-MEL-2 melanoma came out at 6.84 µM; with SK-MEL-5 melanoma, 10.2 µM; in the assay with SNB-19 CNS, 7.62 µM; in the assay with UO-31 renal it was 2.88 µM.

With `NC(CNO)C(=O)O` (stereo not given), the TGI was 21.7 µM with HL-60(TB) leukemia; more than 100 µM in the assay with HOP-62 NSCLC; more than 100 µM with HOP-92 NSCLC; more than 100 µM with MALME-3M melanoma; more than 100 µM with NCI-H23 lung; more than 100 µM with OVCAR-3 ovarian. Moreover, the TGI in the assay on SK-MEL-2 melanoma, with SK-MEL-5 melanoma, in the assay with SNB-19 CNS and with UO-31 renal was more than 100 µM in each case.

As to `C[C@@H](CO)OCOCc1ccccc1`, the TGI in the assay on HL-60(TB) leukemia, with HOP-62 NSCLC, in the assay on HOP-92 NSCLC, in the assay with MALME-3M melanoma, in the assay on NCI-H23 lung and in the assay on OVCAR-3 ovarian was more than 100 µM throughout. The TGI in the assay with SK-MEL-2 melanoma, with SK-MEL-5 melanoma, with SNB-19 CNS and with UO-31 renal was more than 100 µM throughout.

In the case of `ClCc1ccc(-c2ccc(Cn3cnc4c(Cl)nc(Cl)nc43)cc2)cc1`, the GI50 is 3.25 µM in the assay with HL-60(TB) leukemia; 1.92 µM in the assay with HOP-62 NSCLC; 1.98 µM with HOP-92 NSCLC; 7.06 µM in the assay with MALME-3M melanoma; 3.18 µM with NCI-H23 lung; 1.65 µM with OVCAR-3 ovarian. In addition, the GI50 in the assay on SK-MEL-2 melanoma is 1.88 µM; with SK-MEL-5 melanoma, 2.75 µM; in the assay with SNB-19 CNS, 1.95 µM; in the assay with UO-31 renal it was 3.32 µM. Also, the TGI was more than 100 µM in the assay with HL-60(TB) leukemia; 4 µM in the assay with HOP-62 NSCLC; 5.56 µM in the assay with HOP-92 NSCLC; 23.8 µM with MALME-3M melanoma; 14.4 µM in the assay with NCI-H23 lung; 3.05 µM in the assay with OVCAR-3 ovarian. Also, the TGI worked out at 3.42 µM in the assay on SK-MEL-2 melanoma, 12.3 µM in the assay with SK-MEL-5 melanoma, 4.15 µM with SNB-19 CNS and 8.18 µM in the assay on UO-31 renal.

In the case of `COC(=O)C(C)NP(=O)(OCc1ccc(Cn2cnc3c(=O)[nH]c(N)nc32)cc1)Oc1ccccc1` (stereo not given), the GI50 with HL-60(TB) leukemia, in the assay with HOP-62 NSCLC, in the assay on HOP-92 NSCLC, in the assay with MALME-3M melanoma, in the assay on NCI-H23 lung and in the assay with OVCAR-3 ovarian was more than 100 µM each time. The GI50 in the assay on SK-MEL-2 melanoma, with SK-MEL-5 melanoma, with SNB-19 CNS and in the assay on UO-31 renal was more than 100 µM each time. Moreover, the TGI with HL-60(TB) leukemia, in the assay with HOP-62 NSCLC, with HOP-92 NSCLC, in the assay on MALME-3M melanoma, with NCI-H23 lung and with OVCAR-3 ovarian was more than 100 µM throughout. In addition, the TGI in the assay with SK-MEL-2 melanoma, in the assay with SK-MEL-5 melanoma, in the assay with SNB-19 CNS and with UO-31 renal was more than 100 µM each time.

Turning to `O=C(Nc1n[nH]c2nc(-c3ccco3)ccc12)C1CC1`, the GI50 in the assay with HL-60(TB) leukemia was more than 25 µM; with HOP-62 NSCLC, more than 25 µM; in the assay on HOP-92 NSCLC, more than 7.9 µM; with MALME-3M melanoma, more than 25 µM; in the assay with NCI-H23 lung, more than 25 µM; in the assay with OVCAR-3 ovarian, more than 25 µM. Also, the GI50 in the assay with SK-MEL-2 melanoma, in the assay with SK-MEL-5 melanoma, in the assay with SNB-19 CNS and in the assay on UO-31 renal was more than 25 µM in each case. The TGI in the assay with HL-60(TB) leukemia is more than 25 µM; in the assay on HOP-62 NSCLC it was more than 25 µM; with HOP-92 NSCLC it was more than 7.9 µM; in the assay on MALME-3M melanoma, more than 25 µM; in the assay with NCI-H23 lung it was more than 25 µM; in the assay with OVCAR-3 ovarian, more than 25 µM. Further, the TGI in the assay on SK-MEL-2 melanoma, with SK-MEL-5 melanoma, in the assay on SNB-19 CNS and in the assay on UO-31 renal was more than 25 µM in each case.

Regarding `CCCc1cc2cc(-n3nc(C)c4c3CC(C)(C)CC4=O)cc(NC3CCC(O)CC3)c2c(=O)[nH]1` (stereo not given), the GI50 is 0.13 µM in the assay with HL-60(TB) leukemia; 0.129 µM with HOP-62 NSCLC; 0.194 µM in the assay on HOP-92 NSCLC; 0.142 µM in the assay on MALME-3M melanoma; 0.0584 µM with NCI-H23 lung; 0.58 µM with OVCAR-3 ovarian. Besides, the GI50 is 0.441 µM with SK-MEL-2 melanoma, 0.241 µM in the assay on SK-MEL-5 melanoma, 0.523 µM in the assay with SNB-19 CNS and 0.146 µM in the assay on UO-31 renal. The TGI in the assay on HL-60(TB) leukemia was 1.2 µM; in the assay on HOP-62 NSCLC, more than 100 µM; with HOP-92 NSCLC, 1.8 µM; in the assay on MALME-3M melanoma it was 3.34 µM; with NCI-H23 lung it was more than 100 µM; with OVCAR-3 ovarian, more than 100 µM. Also, the TGI with SK-MEL-2 melanoma was more than 100 µM; in the assay with SK-MEL-5 melanoma, 3.56 µM; in the assay with SNB-19 CNS, more than 100 µM; with UO-31 renal, more than 100 µM.
